In patent publication EP2799074A1, “Iron bis-glycinate chelate for use in the oral treatment of anemia in patients with celiac disease” (Laboratori Baldacci S.P.A., priority 2009, dated 2011):
Several values for one entry are separate records, joined by “and”; a condition that tells them apart may be missing. Equal values may be shown once. Read-outs that look alike come from different tables or passages of the source.

Legend:
[1] = with respect to mineral salts, such as ferrous sulphate; literature data; cited from earlier work
[2] = cited from earlier work
[3] = tested on: celiac subjects, with sideropenic anemia; assay: Efficiency comparison between oral iron bis-glycinate chelate (effervescent tablet of example 1) and conventional treatment in celiac patients; haemochromocytometric test; format: in vivo, human; conditions: for Hb values / Serum iron values / Values of Ferritin: one patient per line; for Serum iron values / Values of Ferritin: after initial therapy (Fe sulphate p.o. and/or sodium ferric gluconate i.v.)
Text: 12 celiac subjects, with sideropenic anemia diagnosed according to the hemoglobin (Hb), ferritin and iron (serum iron) values obtained from the haemochromocytometric test were included in this experiment.
Celiac disease was diagnosed according to the clinical manifestations and histology reports regarding the intestinal mucosa.
These patients were then subjected to a therapy using the iron bis-glycinate chelate according to the invention, formulated in the effervescent tablet of example 1.
The hemoglobin (Hb), (Table 1), ferritin (Table 2) and serum iron (Table 3) values taken from each treated patient, both after the conventional therapy (oral and/or intravenous) and after the oral administration according to the present invention (effervescent tablet) were considered for the evaluation.
A therapy cycle corresponds to the treatment for 20 days with two effervescent tablets per day containing about 14 mg of iron ion per tablet and then, an effervescent tablet per day containing 14 mg of iron ion, for further 40 days.
The subsequent maintenance corresponds to the treatment for 20 days with two effervescent tablets per day containing about 14 mg of iron ion per tablet, every 3 months for about one year.
The hemoglobin, ferritin and serum iron blood values were determined after the first treatment cycle and the treatment was continued with repeated cycles according to the previously indicated methods.

celiac patients [4] = assay: Clinical records of celiac patients treated with conventional iron salts p.o. and i.v. (Examples 6-11)
Experimental: (§1) All patients were initially treated with ferrous sulphate orally (1 tablet of ferrous sulphate, corresponding to 105 mg of iron ion) for 40 days and/or with sodium ferric gluconate by intravenous administration for a variable period of time according to the seriousness of the anemic status.
(§2) All patients were diagnosed with celiac disease through bioptic sampling and with serological tests. During the conventional therapy, the diet of said patients was controlled and corrected with gluten-free foods.

celiac patients [5] = conditions: human, in vivo
Experimental: as §1, §2

[6] = Patient I, ferrous sulphate oral, Final values, 40 days
[7] = Patient I, ferrous sulphate oral, Initial values, 40 days
[8] = Patient II, ferrous sulphate oral, Final values, 8/10 days
[9] = Patient II, ferrous sulphate oral, Initial values, 8/10 days
[10] = Patient III, ferrous sulphate oral, Final values, 40 days
[11] = Patient III, ferrous sulphate oral, Initial values, 40 days
[12] = Patient V, ferrous sulphate oral, Final values, 40 days
[13] = Patient V, ferrous sulphate oral, Initial values, 40 days
[14] = Patient I, iron polymaltosate oral, Final values, 20 days
[15] = Patient I, iron polymaltosate oral, Initial values, 20 days
[16] = Patient I, ferric iron i.v., Final values, 20 days
[17] = Patient I, ferric iron i.v., Initial values, 20 days
[18] = Patient II, ferric iron i.v., Final values, few days
[19] = Patient II, ferric iron i.v., Initial values, few days
[20] = Patient IV, ferric iron i.v., Final values, 20 days
[21] = Patient IV, ferric iron i.v., Initial values, 20 days
[22] = Patient VI, iron i.v., Final values, 20 days
[23] = Patient VI, iron i.v., Initial values, 20 days

NCC(=O)[O-].NCC(=O)[O-].[Fe+2] [Iron bis-glycinate chelate, iron bis-glycinate chelate]
bioavailability [1]: greater bioavailability | hydrolysis ([2]; different pH values of the gastrointestinal section): does not undergo hydrolysis | separation into iron ion ([2]; pH interval comprised between 3 and 10): not separated into iron ion | hemoglobin, ferritin and serum iron value ([3]; after I therapy cycle, celiac patients): considerably increases | Hb values ([3]; after efferv. tab therapy 1st cycle: two effervescent tablets per day for 20 days, then one per day for 40 days): 12.5 g/100 ml and 12.0 g/100 ml (2×) and 13.1 g/100 ml and 11.7 g/100 ml and 11.8 g/100 ml and 12.8 g/100 ml and 12.3 g/100 ml and 12.7 g/100 ml and 11.9 g/100 ml and 12.1 g/100 ml and 10.0 g/100 ml | Hb values ([3]; after maintenance efferv. tab.: two tablets per day for 20 days every 3 months for about one year): 13.6 g/100 ml and 12.9 g/100 ml (2×) and 14.3 g/100 ml and 13.4 g/100 ml (2×) and 13.2 g/100 ml and 12.3 g/100 ml and 14.0 g/100 ml and 13.1 g/100 ml and 12.7 g/100 ml and 12.1 g/100 ml | adverse effects ([3]; oral treatment of 12 celiac patients with the effervescent tablet of example 1): did not reveal any adverse effects worth mentioning

O=S(=O)([O-])[O-].[Fe+2] [ferrous sulphate]
tolerability / adverse events of the treatment (celiac patients [4]; Patient I - Female): intestinal intolerance | Ferritin (celiac patients [4]; [6]): 38 | Serum iron (celiac patients [4]; [6]): 48 | Hb (celiac patients [4]; Patient I, ferrous sulphate oral, Final values, duration 40 days): 11.1 | Ferritin (celiac patients [4]; [7]): 32 | Serum iron (celiac patients [4]; [7]): 41 | Hb (celiac patients [4]; Patient I, ferrous sulphate oral, Initial values, duration 40 days): 10.2 | Ferritin (celiac patients [4]; [8]): 45 | Hb (celiac patients [4]; [8]): 12.3 | Serum iron (celiac patients [4]; [8]): 68 | Ferritin (celiac patients [4]; [9]): 41 | Hb (celiac patients [4]; [9]): 11.6 | Serum iron (celiac patients [4]; [9]): 55 | Ferritin (celiac patients [4]; [10]): 27 | Hb (celiac patients [4]; [10]): 10 | Serum iron (celiac patients [4]; [10]): 38 | Ferritin (celiac patients [4]; [11]): 19 | Hb (celiac patients [4]; [11]): 9.1 | Serum iron (celiac patients [4]; [11]): 32 | Hb (celiac patients [4]; Patient V, ferrous sulphate oral, after several therapy cycles, Initial values, 40 days): 8.4 | Ferritin (celiac patients [4]; [12]): 21 | Hb (celiac patients [4]; [12]): 9.7 | Serum iron (celiac patients [4]; [12]): 46 | Ferritin (celiac patients [4]; [13]): <5 | Serum iron (celiac patients [4]; [13]): 22 | Serum iron values [3]: 34 µg/dL and 16 µg/dL | Values of Ferritin [3]: 23 ng/mL and <5 ng/mL

iron polymaltosate
tolerability / adverse events of the treatment (celiac patients [5]): well tolerated | Ferritin (celiac patients [4]; [14]): 25 | Hb (celiac patients [4]; [14]): 10.8 | Serum iron (celiac patients [4]; [14]): 43 | Ferritin (celiac patients [4]; [15]): 29 | Hb (celiac patients [4]; [15]): 10.6 | Serum iron (celiac patients [4]; [15]): 38

sodium ferric gluconate
tolerability / adverse events of the treatment (celiac patients [5]; iv): skin rush and asthmatic crisis | Ferritin (celiac patients [4]; [16]): 30 | Hb (celiac patients [4]; [16]): 9.8 | Serum iron (celiac patients [4]; [16]): 48 | Ferritin (celiac patients [4]; [17]): <5 | Serum iron (celiac patients [4]; [17]): 19 | Hb (celiac patients [4]; Patient I, ferric iron i.v., Initial values, 20 days, 1 vial/day for 10 days, then 2 vials/day): 7.7 | Ferritin (celiac patients [4]; [18]): 33 | Serum iron (celiac patients [4]; [18]): 49 | Hb (celiac patients [4]; Patient II, ferric iron i.v., Final values, few days, cycle not completed): 10.8 | Ferritin (celiac patients [4]; [19]): 31 | Serum iron (celiac patients [4]; [19]): 40 | Hb (celiac patients [4]; Patient II, ferric iron i.v., Initial values, few days, cycle not completed): 10.4 | Ferritin (celiac patients [4]; [20]): 42 | Hb (celiac patients [4]; [20]): 10.6 | Serum iron (celiac patients [4]; [20]): 54 | Ferritin (celiac patients [4]; [21]): 21 | Serum iron (celiac patients [4]; [21]): 39 | Hb (celiac patients [4]; Patient IV, ferric iron i.v., Initial values, 20 days, 1 vial/day for 10 days, then 2 vials/day): 9.7 | values of Hb (celiac patients [4]; Patient IV, iron i.v., cycles every 3/4 months): around 11 gr/dl | Ferritin (celiac patients [4]; [22]): 81 | Hb (celiac patients [4]; [22]): 12.6 | Serum iron (celiac patients [4]; [22]): 68 | Ferritin (celiac patients [4]; [23]): 35 | Hb (celiac patients [4]; [23]): 10.2 | Serum iron (celiac patients [4]; [23]): 41 | Serum iron values [3]: 30 µg/dL | Values of Ferritin [3]: 22 ng/mL
